# Source: paper PMC7822874, “Chemoprotective antimalarials identified through quantitative high-throughput screening of Plasmodium blood and liver stage parasites” (Scientific Reports, 2021)
# Values joined by “and” are separate entries in the source; they are usually repeats but may differ in a detail not shown here. Identical values can stand only once. Like-named read-outs stand apart in the source and are kept apart here.
# Key:
# [1] = system: T1, Plasmodium falciparum Dd2-attB (parental line), asexual blood stages; test: microbe, parasite or virus in culture; set-up: species or system P. falciparum Dd2-attB in human erythrocytes; SYBR Green-I proliferation assay, Dd2-attB parental line, asexual blood stages; details: Plasmodium falciparum, DD2, Erythrocyte, 72 h, read-out: Calculated / Average Log AC50 (M), mean of replicates, 72 h (converted)
# T1 construct: Dd2-attB, the isogenic parental line
# [2] = system: T1, Plasmodium falciparum Dd2-attB (parental line), asexual blood stages; test: microbe, parasite or virus in culture; set-up: replicate k of 3 (each line is one of three independent assays; the three lines of one compound and parasite line follow each other); details: n = 1; for AC50: Plasmodium falciparum, DD2, 72 h, read-out: Individual replicates / Log AC50 (converted); for Individual replicates / Log AC50 (M): 72 h
# Summary of the method: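 Both lines were tested side by side with selected compounds, repeated in three independent assays. Differences between parental and ScDHODH-expressing parasites were then assessed with a two-sided Student's t-test.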
# [3] = system: P. berghei-ANKA-GFP-LucCON liver stage parasites in HepG2-A16-CD81EGFP cells; test: P. berghei liver stage Pb-Luc assay, Method 1 (UCSD, 1536-well); format: cell-based, Plasmodium berghei; details: for activity at 1 µM / activity at 3 µM: 48 h, average of 2 wells, 1536-well plate; for activity at 1 µM: nominal 1 uM (10 mM stock), […] for 15 mM, 1.2 uM for 12 mM, 2 uM for 20 mM stock; for activity at 3 µM: nominal 3 uM (10 mM stock), 4.5 uM for 15 mM, 3.6 uM for 12 mM, 6 uM for 20 mM stock; for Pb-Luc signal, 1 uM, repeat 1: reference of the scale not given here; for Pb-Luc signal, 1 uM, repeat 2: reference of the scale not given here; for Pb-Luc signal, 1 uM, repeat 3: reference of the scale not given here; for Pb-Luc signal, 3 uM, repeat 1: reference of the scale not given here; for Pb-Luc signal, 3 uM, repeat 2: reference of the scale not given here; for Pb-Luc signal, 3 uM, repeat 3: reference of the scale not given here
# in vitro [4] = details: human, HepG2-A16-CD81EGFP cells, uninfected
# [5] = system: Plasmodium falciparum Dd2 asexual blood stage parasites; test: microbe, parasite or virus in culture; set-up: species or system Plasmodium falciparum Dd2 in human erythrocytes; single determination (one 11-point concentration-response curve); details: Plasmodium falciparum, DD2, Erythrocyte, 72 h; read-out: AC50
# HepG2-A16-CD81EGFP cells = details: average of 2 wells, repeat 2
# in vitro [6] = details: human, HepG2 cells; n = 1
# [7] = system: luciferase-expressing P. berghei liver stage parasites in HepG2 cells; test: Inhibition of liver-stage development assay (ILSDA), Method 2 (WRAIR, 96-well); format: cell-based, Plasmodium berghei; details: P. berghei liver stage, Method 2, dose response
SMILES,AC50 [1],also measured
CCOC(=O)c1cnn(-c2cc(C(N)=O)ccn2)c1-c1ccc(OC)cc1 [NCGC00421836-01],6.33e-06 M,–
CC(C)c1c(-c2cnn(C(C)(C)C)c2)n2ncc(C#N)c2[nH]c1=O [NCGC00500019-01],1.53e-05 M,–
O=C(N[C@H]1CC(=O)N(c2cc(-c3ccccc3)[nH]n2)C1=O)c1ccccc1 [NCGC00489852-01],7.1e-10 M,–
COC(=O)CCNc1cc(N2CCCN(C(=O)C(C#N)=C(C)C)CC2)nc(-c2ccccn2)n1 [NCGC00420856-01],1.42e-05 M,–
CN(C)CCCN1CCCN(C(=O)c2cccc(-c3cc(O)c4ncccc4c3)c2)C1 [NCGC00247763-01],1.93e-05 M,–
O=C(O)c1ccc(O)c2ncc(N3CCCC3)cc12 [NCGC00189500-01],1.72e-05 M,–
CN(C)CCCNC(=O)c1ccc(-c2cnc3c(O)ccc(C(=O)O)c3c2)cc1 [NCGC00189503-01],1.93e-05 M,–
COc1ccc(CNC(=O)c2nc([S+](=O)([O-])Cc3ccccc3)ncc2Cl)cc1 [NCGC00117170-03],1.31e-05 M,AC50 [2]: 8.94 µM
O=C(Nc1ccccc1F)c1nc([S+](=O)([O-])Cc2ccccc2F)ncc1Cl [NCGC00117146-03],1.34e-05 M,–
O=C(O)c1ccc(O)c2ncc(NC3CCNCC3)cc12 [NCGC00241037-01],1.72e-05 M,AC50 [2]: 14.2 µM
O=C(O)c1ccc(O)c2ncc(-c3n[nH]nc3-c3ccccc3)cc12 [NCGC00241764-02],4.66e-06 M,–
Cc1cccc(CN2CCCn3nc(C)c(-c4ccnn4C(C)C)c32)n1 [NCGC00499722-01],1.65e-07 M,–
O=C(O)c1ccnc(-n2ncc(C(OCCN3CCCCC3)c3ccccc3)c2-c2ccccc2Cl)c1 (stereo not shown) [NCGC00483104-01],1.36e-05 M,–
CN(C)CCCNC(=O)c1cccc(-c2cc(O)c3nccc(C(=O)O)c3c2)c1 [NCGC00247762-01],2.25e-05 M,–
CCOC(=O)c1ccnc(CNCC(=O)N(CC)CCN(C)C)c1 [NCGC00371443-05],1.47e-07 M,–
COC(=O)c1ccc(OC(C)=O)c2ncccc12 [NCGC00187997-01],1.93e-05 M,–
OCc1cn(Cc2ccc(O)c3ncccc23)cn1 [NCGC00183377-01],2.08e-05 M,–
Oc1ccc(COC2CCN(Cc3ccccc3)C2)c2cccnc12 (stereo not shown) [NCGC00183382-01],7.97e-06 M,Individual replicates / Log AC50 (M) [2]: -5.2986 Log AC50 (M) and -5.1986 Log AC50 (M) and -4.7986 Log AC50 (M)
C=CC(=O)N1CCCN(c2cc(NCCC(=O)O)nc(-c3ccccn3)n2)CC1 [NCGC00420854-01],2.16e-05 M,–
CCOc1ccc(-c2[nH]c3c(C#N)cnn3c2NC2CCCCC2)cc1 [NCGC00119971-02],1.85e-05 M,AC50 [2]: 15.9 µM
CN1CCCCC1CCOC(c1cc2nccc(C(=O)O)c2[nH]1)c1ccccc1Cl (stereo not shown) [NCGC00479006-01],1.93e-05 M,–
O=C(O)c1ccc(O)c2ncc(N3CCOCC3)cc12 [NCGC00241036-03],1.65e-05 M,Individual replicates / Log AC50 (M) [2]: -4.8486 Log AC50 (M)
CN1CCCC1CCOC(c1cc2nccc(C(=O)O)c2[nH]1)c1ccccc1Cl (stereo not shown) [NCGC00421826-01],6.58e-06 M,–
O=C(O)c1ccnc2cc(C(OCCN3CCCCC3)c3ccccc3Cl)[nH]c12 (stereo not shown) [NCGC00479257-01],1.89e-05 M,–
Cc1cccc(C)c1Nc1c(-c2cccs2)nc2ncccn12 [NCGC00107923-03],5.03e-07 M,–
O=C(O)c1ccnc2cc(C(OCCCN3CCCC3)c3ccccc3Cl)[nH]c12 (stereo not shown) [NCGC00421827-01],4.48e-06 M,–
CN1CCC(N2CCCC(CNC(=O)c3cccc(-c4cc(O)c5ncccc5c4)c3)C2)CC1 (stereo not shown) [NCGC00247748-01],1.85e-05 M,–

SMILES,AC50 [1],also measured
Cn1ccnc1CCOC(c1cc2nccc(C(=O)O)c2[nH]1)c1ccccc1Cl (stereo not shown) [NCGC00421835-01],1.85e-05 M,AC50 [2]: 15.9 µM
CCc1cccc(C)c1Nc1c(-c2ccc(N(C)C)cc2)nc2ncccn12 [NCGC00107648-03],1.93e-05 M,AC50 [2]: 15.9 µM
O=C(O)c1ccnc2c(O)cc(N3CCOCC3)cc12 [NCGC00247744-02],1.5e-07 M,–
Cc1nn2c(c1-c1ccnn1C(C)C)N(Cc1ccccc1)CCC2 [NCGC00500003-01],1.31e-05 M,AC50 [2]: 8.94 µM
O=C(O)c1ccnc2c(O)cccc12 [NCGC00183785-01],2e-05 M,–
Cn1cnc(-c2nccc3c(O)nc(OCCCC(F)(F)F)nc23)c1 [NCGC00381768-02],2.08e-05 M,–
CC(C)(C)c1cc(N2CCC(NC(=O)c3ccccc3)C2)n[nH]1 (stereo not shown) [NCGC00488845-01],2.25e-05 M,–
Oc1ccc(CNc2ccccc2Br)c2cccnc12 [NCGC00184890-01],1.78e-05 M,–
CC(C)=C(C#N)C(=O)N1CCCN(c2cc(NCCC(=O)O)nc(-c3ccccn3)n2)CC1 [NCGC00420877-01],1.59e-08 M,–
COCCn1c(C)cc(O)c(C(c2ccc(OC)cc2)N2CCN(c3ccccc3)CC2)c1=O (stereo not shown) [NCGC00133311-02],9.29e-06 M,–
O=C(O)c1ccc(O)c2ncc(N3CCCCC3)cc12 [NCGC00241752-01],1.65e-05 M,–
COC(=O)c1ccc(N(CCN2CCC(F)(F)CC2)c2ccc(F)cc2)cn1 [NCGC00390009-01],1.53e-05 M,–
COC(=O)c1ccnc(-c2cc(C(=O)NCCc3ccccc3)ccn2)c1 [NCGC00351541-01],2.16e-05 M,–
C=C[S+](=O)([O-])N1CCCN(c2cc(NCCC(=O)O)nc(-c3ccccn3)n2)CC1 [NCGC00420874-01],2.25e-05 M,–
O=C(O)c1ccnc(-n2ncc(C(OCCN3CCCCC3)c3ccccc3Cl)c2-c2ccccc2Cl)c1 (stereo not shown) [NCGC00487469-01],1.85e-05 M,–
O=C(O)c1ccc(O)c2ncc(-c3cccc(N4CCOCC4)c3)cc12 [NCGC00241753-01],2.16e-05 M,–
CCc1c(C)[nH]c2c(-c3cnn(-c4cc(CO)ccn4)c3)cnn2c1=O [NCGC00387307-02],4.84e-08 M,–
O=C(O)c1ccnc2cc(C(OCCCC3CCCCN3)c3ccccc3Cl)[nH]c12 (stereo not shown) [NCGC00479271-01],8.94e-06 M,–
Cc1nn2c(c1-c1ccnn1C(C)C)N(CC1CC1)CCC2 [NCGC00499721-01],1.59e-05 M,–
CN1CCCC1CCOC(c1cccc(-c2ccccc2)c1)c1cc2nccc(C(=O)O)c2s1 (stereo not shown) [NCGC00481397-01],1.42e-05 M,–
O=C(O)c1ccnc2cc(C(OCCN3CCC(F)(F)CC3)c3ccccc3Cl)[nH]c12 (stereo not shown) [NCGC00414992-02],1.53e-05 M,–
CCOC(=O)c1ccnc(-n2ncc(C(=O)OCC)c2-c2ccc(OC)cc2)c1 [NCGC00421879-01],1.22e-05 M,–
O=C(O)c1ccnc(-n2ncc(C(OCCN3CCCCC3)c3ccccc3)c2-c2ccccc2)c1 (stereo not shown) [NCGC00488202-01],2.12e-05 M,–
CN(C)CCCNC(=O)c1ccccc1-c1cc(O)c2ncccc2c1 [NCGC00247753-01],1.47e-05 M,–
CCN(Cc1noc(CC(C)C)n1)C(=O)c1cnc(-c2ccccn2)nc1O [NCGC00438951-02],1.85e-05 M,–
O=C(O)c1ccc(O)c2ncc(N3CC(N4CCOCC4)C3)cc12 [NCGC00241761-01],1.72e-05 M,–
Cc1nn2c(c1-c1ccccc1-c1ccccc1)N(CCC(C)C)CCC2 [NCGC00420437-01],–,"Max Resp (signal direction of the dose response) ([3]; Method 1, Decrease = decreasing P. berghei viability with dose, Increase = increasing signal, Inactive = no dose response): Decrease; AC50 ([3]; Method 1, Hill fit, 50% of maximum activity response, read-out: AC50): 1.12 µM; Log AC50 (M) ([3]; Method 1, log10 of molar AC50 from Hill fit): -5.950 M; activity at 1 µM ([3]; Plasmodium berghei, repeat 1, read-out: Pb-Luc signal, 1 uM, repeat 1): 19.7%; activity at 1 µM ([3]; Plasmodium berghei, repeat 2, read-out: Pb-Luc signal, 1 uM, repeat 2): 20.4%; activity at 1 µM ([3]; Plasmodium berghei, repeat 3, read-out: Pb-Luc signal, 1 uM, repeat 3): 5.15%; activity at 3 µM ([3]; Plasmodium berghei, repeat 1, read-out: Pb-Luc signal, 3 uM, repeat 1): 4.48%; activity at 3 µM ([3]; Plasmodium berghei, repeat 2, read-out: Pb-Luc signal, 3 uM, repeat 2): 7.19%; activity at 3 µM ([3]; Plasmodium berghei, repeat 3, read-out: Pb-Luc signal, 3 uM, repeat 3): 3.33%; AC50 ([3]; Plasmodium berghei, Method 1, Hill fit, 50% of maximum activity response, read-out: AC50): 1 µM; AC50 ([3]; Plasmodium berghei, Method 1, log10 of molar AC50 from Hill fit, read-out: Log AC50 (converted)): 1 µM; viability at 48 h, 1 µM (in vitro [4]): 104%; viability at 48 h, 3 µM (in vitro [4]): 10.8%; AC50 [5]: 0.243 µM; HepG2 viability signal, 1 uM, repeat 2 (HepG2-A16-CD81EGFP cells; nominal 1 uM (10 mM stock), […] for 15 mM, 1.2 uM for 12 mM, 2 uM for 20 mM stock): 106.23%; HepG2 viability signal, 3 uM, repeat 2 (HepG2-A16-CD81EGFP cells; nominal 3 uM (10 mM stock), 4.5 uM for 15 mM, 3.6 uM for 12 mM, 6 uM for 20 mM stock): 19.77%; CC50 at 48 h (in vitro [6]): 19.8 µM; Activity direction (Decrease / Inactive) [7]: Inactive"
